According to ChEMBL document CHEMBL1201862, “PubChem BioAssay data set” (2004):
Calls of active or inactive are those of the source.

Assays:
[1] = target: T1, Protein RecA (Mycobacterium tuberculosis, UniProt P9WHJ3); test: Fluorescence Cell-Free Homogeneous Dose Retest to Identify Inhibitors of RecA-Intein Splicing Activity. [Related pubchem assays (depositor defined):AID2097, AID2223, AID489010, AID492950]; type: functional
T1 sequence (P9WHJ3 whole entry): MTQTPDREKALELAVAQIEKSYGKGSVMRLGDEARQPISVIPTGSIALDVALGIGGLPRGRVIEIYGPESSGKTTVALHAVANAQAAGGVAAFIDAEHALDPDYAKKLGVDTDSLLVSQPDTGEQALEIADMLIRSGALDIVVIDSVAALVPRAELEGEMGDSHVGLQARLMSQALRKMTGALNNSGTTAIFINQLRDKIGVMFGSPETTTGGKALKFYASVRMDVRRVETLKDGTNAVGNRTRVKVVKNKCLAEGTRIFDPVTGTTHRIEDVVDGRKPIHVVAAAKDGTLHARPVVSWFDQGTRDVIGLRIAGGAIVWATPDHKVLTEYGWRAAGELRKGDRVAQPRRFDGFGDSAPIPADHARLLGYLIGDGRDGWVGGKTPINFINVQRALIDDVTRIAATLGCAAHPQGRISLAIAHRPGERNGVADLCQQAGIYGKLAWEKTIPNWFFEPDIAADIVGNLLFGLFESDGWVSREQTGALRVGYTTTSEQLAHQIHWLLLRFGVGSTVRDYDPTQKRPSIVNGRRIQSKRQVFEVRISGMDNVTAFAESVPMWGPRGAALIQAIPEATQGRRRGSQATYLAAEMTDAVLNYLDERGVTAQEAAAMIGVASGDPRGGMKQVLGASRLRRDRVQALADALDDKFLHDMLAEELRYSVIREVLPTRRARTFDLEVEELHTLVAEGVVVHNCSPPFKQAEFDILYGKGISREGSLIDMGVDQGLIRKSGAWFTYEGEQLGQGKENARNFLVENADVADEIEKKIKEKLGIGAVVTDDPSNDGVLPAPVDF

[2] = target: Beta-galactosidase (Escherichia coli, UniProt Q8VNN2); type: functional
Chain of Beta-galactosidase (Q8VNN2 whole entry): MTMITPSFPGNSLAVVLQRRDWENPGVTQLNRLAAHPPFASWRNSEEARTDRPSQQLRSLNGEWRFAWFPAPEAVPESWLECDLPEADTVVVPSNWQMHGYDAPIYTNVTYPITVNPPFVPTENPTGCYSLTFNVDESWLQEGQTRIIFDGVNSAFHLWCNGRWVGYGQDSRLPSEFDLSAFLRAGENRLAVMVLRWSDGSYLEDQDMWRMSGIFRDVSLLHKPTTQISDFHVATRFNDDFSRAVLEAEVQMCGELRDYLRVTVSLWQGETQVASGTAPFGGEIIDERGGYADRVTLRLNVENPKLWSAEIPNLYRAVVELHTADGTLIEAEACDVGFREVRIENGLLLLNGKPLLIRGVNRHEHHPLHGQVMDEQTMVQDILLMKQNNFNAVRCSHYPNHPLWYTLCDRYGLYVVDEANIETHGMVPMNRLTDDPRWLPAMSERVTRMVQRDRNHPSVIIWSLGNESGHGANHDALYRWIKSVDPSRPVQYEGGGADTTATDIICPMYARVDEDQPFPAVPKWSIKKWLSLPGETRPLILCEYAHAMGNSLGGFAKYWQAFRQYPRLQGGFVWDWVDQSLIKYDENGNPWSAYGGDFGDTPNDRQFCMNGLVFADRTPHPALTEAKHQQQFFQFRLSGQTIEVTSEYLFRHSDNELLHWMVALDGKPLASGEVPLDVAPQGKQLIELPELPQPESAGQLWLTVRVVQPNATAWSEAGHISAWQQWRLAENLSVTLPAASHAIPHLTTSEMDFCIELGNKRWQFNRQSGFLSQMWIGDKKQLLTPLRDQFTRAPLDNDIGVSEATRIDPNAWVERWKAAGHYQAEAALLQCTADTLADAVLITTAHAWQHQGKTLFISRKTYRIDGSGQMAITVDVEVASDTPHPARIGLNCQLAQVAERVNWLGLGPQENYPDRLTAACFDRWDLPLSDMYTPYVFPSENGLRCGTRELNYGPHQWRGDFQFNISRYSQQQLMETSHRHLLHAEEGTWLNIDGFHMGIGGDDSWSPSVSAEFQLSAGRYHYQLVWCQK

[3] = target: T2, Delta-type opioid receptor (Homo sapiens, UniProt P41143); test: HTS Image-Based Screen for Antagonists of the DOR Receptor. [Related pubchem assays (depositor defined):AID1777, AID1785, AID1786, AID2133]; type: functional
T2 sequence (P41143 whole entry): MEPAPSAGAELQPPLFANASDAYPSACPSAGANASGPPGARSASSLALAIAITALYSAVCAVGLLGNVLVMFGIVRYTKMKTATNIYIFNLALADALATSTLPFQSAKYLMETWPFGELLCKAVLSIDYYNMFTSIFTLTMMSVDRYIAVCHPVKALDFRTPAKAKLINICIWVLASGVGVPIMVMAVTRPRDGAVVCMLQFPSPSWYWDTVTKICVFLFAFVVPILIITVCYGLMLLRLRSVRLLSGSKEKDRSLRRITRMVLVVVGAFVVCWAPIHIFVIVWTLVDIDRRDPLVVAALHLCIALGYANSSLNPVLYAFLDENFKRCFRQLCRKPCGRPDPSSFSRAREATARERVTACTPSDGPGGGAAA

[4] = viability loss in HeLa cells – cytotoxicity control for MgcRacGAP inhibitor project, dose response (AID 624300); type: functional
[5] = target: T3, Kappa-type opioid receptor (Homo sapiens, UniProt P41145); type: functional
T3 sequence (P41145 whole entry): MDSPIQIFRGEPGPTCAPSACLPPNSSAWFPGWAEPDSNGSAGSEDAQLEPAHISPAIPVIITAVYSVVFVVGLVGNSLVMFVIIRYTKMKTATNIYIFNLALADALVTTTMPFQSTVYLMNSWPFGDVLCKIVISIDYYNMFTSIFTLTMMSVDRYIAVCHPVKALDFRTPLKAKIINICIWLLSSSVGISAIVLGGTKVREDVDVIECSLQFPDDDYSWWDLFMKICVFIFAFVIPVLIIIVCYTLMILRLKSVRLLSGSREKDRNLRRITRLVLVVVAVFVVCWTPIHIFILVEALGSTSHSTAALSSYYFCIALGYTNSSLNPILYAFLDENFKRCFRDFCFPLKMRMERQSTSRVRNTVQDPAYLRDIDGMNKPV

[6] = target: T3, Kappa-type opioid receptor; type: functional; remark: listed apart in the source
[7] = target: Mu-type opioid receptor (Homo sapiens, UniProt P35372); test: HTS Image-Based Screen for Agonists of the MOR Receptor. [Related pubchem assays (depositor defined):AID1777, AID1785, AID1786, AID2133]; type: functional;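 also: imaging of beta-arrestin GFP recruitment into spots after receptor activation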
Chain of Mu-type opioid receptor (P35372 whole entry): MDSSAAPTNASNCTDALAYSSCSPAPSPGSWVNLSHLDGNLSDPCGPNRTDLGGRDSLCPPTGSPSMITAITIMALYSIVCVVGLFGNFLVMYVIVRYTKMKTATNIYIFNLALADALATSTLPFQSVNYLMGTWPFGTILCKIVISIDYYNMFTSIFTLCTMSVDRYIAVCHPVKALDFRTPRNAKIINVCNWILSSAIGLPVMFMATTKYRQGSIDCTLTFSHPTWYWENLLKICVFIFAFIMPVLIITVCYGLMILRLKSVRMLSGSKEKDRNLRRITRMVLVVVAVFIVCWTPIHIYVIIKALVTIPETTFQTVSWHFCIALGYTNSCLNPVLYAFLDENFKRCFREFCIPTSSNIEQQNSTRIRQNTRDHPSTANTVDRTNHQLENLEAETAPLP

[8] = target: T4, Rac GTPase-activating protein 1 (Homo sapiens, UniProt Q9H0H5); test: blockers of MgcRacGAP-driven Rac1 GTP hydrolysis – biochemical, ADP Hunter fluorescence, primary and confirmatory, confirmation (AID 624330); type: functional
T4 sequence (Q9H0H5 whole entry): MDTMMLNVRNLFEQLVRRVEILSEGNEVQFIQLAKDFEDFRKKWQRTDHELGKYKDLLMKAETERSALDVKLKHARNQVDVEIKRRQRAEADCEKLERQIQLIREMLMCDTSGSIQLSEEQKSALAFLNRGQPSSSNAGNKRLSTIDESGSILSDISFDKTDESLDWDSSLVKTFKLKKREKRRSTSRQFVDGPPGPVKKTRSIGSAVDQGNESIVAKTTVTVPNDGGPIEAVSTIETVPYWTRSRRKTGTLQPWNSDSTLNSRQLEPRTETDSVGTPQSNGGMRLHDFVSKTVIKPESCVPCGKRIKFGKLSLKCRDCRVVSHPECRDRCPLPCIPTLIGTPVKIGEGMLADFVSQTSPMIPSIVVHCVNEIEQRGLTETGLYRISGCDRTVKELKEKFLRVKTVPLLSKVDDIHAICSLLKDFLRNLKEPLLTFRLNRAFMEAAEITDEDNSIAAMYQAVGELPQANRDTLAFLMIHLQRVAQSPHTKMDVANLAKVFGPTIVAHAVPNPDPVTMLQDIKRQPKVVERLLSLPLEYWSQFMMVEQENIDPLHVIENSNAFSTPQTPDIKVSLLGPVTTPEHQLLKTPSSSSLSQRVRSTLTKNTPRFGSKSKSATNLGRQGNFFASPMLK

[9] = target: T5, Replicative DNA helicase DnaB (Mycobacterium tuberculosis, UniProt P9WMR3); test: DnaB intein splicing inhibitors, dose response, biochemical, cell-free fluorescence (AID 449749); type: functional
T5 sequence (P9WMR3 whole entry): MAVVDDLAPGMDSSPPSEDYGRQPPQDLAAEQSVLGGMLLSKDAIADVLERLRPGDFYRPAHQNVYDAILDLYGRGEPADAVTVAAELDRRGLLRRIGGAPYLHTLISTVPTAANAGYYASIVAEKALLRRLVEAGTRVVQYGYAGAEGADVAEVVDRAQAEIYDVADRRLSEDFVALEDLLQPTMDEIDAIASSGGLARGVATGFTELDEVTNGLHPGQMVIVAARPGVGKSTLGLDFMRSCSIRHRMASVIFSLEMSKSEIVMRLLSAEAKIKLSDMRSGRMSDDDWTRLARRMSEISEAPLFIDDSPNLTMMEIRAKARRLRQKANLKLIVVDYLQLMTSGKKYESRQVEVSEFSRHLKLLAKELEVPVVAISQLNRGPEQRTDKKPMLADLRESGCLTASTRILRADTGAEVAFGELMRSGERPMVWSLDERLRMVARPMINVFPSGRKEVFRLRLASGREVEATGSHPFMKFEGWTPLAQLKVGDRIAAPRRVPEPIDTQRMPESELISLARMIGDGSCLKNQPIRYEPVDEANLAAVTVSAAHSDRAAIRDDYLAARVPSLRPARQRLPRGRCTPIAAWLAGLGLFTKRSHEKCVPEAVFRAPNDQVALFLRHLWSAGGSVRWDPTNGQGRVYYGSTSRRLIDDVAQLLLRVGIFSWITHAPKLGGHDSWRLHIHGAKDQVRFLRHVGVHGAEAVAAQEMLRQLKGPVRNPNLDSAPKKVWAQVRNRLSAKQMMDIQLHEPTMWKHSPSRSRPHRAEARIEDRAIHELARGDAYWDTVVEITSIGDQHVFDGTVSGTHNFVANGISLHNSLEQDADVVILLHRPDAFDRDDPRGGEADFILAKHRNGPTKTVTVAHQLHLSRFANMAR

[10] = target: T2, Delta-type opioid receptor; test: HTS Image-Based Screen for Agonists of the DOR Receptor. [Related pubchem assays (depositor defined):AID1777, AID1786, AID2133]; type: functional
[11] = target: Nuclear receptor subfamily 5 group A member 2 (Homo sapiens, UniProt O00482); type: functional, cell-based;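 also: HEK293T cells transfected with LRH-1 and a StAR promoter luciferase reporter; potency for inhibitors that lower LRH-1 driven reporter light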
Chain of Nuclear receptor subfamily 5 group A member 2 (O00482 whole entry): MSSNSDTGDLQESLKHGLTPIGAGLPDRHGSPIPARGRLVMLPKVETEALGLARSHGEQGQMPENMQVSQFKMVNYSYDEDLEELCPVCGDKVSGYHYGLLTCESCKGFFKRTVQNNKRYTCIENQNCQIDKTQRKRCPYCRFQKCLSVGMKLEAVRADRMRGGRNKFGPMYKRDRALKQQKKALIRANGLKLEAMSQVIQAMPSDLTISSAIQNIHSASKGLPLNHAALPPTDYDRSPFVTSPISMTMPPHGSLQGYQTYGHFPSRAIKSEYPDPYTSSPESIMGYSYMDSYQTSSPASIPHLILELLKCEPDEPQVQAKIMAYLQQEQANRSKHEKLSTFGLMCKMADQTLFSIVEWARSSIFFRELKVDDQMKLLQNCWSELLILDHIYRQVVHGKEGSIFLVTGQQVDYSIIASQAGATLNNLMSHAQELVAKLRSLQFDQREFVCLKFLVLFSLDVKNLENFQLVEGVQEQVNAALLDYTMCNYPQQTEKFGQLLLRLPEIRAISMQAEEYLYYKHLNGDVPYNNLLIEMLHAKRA

[12] = target: Steroidogenic factor 1 (Homo sapiens, UniProt Q13285); test: Counterscreen for inverse agonists of the liver receptor homolog-1 (LRH-1; NR5A2): Luminescence-based cell-based high throughput dose response assay to identify inverse agonists of the Steroidogenic Factor 1 Nuclear Receptor (SF1; NR5A1).; type: functional
Chain of Steroidogenic factor 1 (Q13285 whole entry): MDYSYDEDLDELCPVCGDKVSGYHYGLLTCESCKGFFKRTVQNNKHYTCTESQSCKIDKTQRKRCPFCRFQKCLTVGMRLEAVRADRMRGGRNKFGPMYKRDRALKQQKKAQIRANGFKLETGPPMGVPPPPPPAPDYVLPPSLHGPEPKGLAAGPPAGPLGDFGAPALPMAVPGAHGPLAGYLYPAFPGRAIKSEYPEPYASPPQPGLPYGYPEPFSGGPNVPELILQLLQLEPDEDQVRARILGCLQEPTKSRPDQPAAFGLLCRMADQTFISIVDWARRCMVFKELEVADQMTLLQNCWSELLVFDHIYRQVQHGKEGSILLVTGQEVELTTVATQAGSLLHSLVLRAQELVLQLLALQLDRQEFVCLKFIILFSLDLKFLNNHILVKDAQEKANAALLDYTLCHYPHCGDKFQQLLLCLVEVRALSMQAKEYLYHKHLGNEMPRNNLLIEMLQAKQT

[13] = nonselective StAR promoter luciferase inhibitors – cell-based, luminescence, luciferase reporter, counter-screen for LRH-1 inverse agonist project, dose response (AID 651969); type: functional
[14] = target: Beta Lactamase (Pseudomonas aeruginosa, UniProt Q932Y6); test: BLA reporter interference, concentration series – BLA reporter cells, FRET fluorescence, artefact control for NOD2-RIPK2 interaction inhibitor project, dose response (AID 651552); type: functional, cell-based
Chain of Beta Lactamase (Q932Y6 whole entry): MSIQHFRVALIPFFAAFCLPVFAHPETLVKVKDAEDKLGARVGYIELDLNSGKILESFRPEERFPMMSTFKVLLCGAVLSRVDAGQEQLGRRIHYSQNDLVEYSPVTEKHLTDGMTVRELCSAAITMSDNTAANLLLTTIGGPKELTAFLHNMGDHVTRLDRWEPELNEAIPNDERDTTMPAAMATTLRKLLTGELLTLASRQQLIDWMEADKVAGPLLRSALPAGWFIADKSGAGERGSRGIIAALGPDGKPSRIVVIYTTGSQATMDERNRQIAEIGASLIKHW

[15] = target: T6, Heat shock factor protein 1 (Mus musculus, UniProt P38532); test: decrease of HSF1-responsive luciferase luminescence – cell-based, NIH3T3, dose retest, confirmation (AID 2382); type: functional;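 also: NIH3T3 fibroblasts with HSF1-driven luciferase reporter stressed by proteasome inhibitor MG132; luminescence from HSF1-driven luciferase expression after 8 hours of MG132 stress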
T6 sequence (P38532 whole entry): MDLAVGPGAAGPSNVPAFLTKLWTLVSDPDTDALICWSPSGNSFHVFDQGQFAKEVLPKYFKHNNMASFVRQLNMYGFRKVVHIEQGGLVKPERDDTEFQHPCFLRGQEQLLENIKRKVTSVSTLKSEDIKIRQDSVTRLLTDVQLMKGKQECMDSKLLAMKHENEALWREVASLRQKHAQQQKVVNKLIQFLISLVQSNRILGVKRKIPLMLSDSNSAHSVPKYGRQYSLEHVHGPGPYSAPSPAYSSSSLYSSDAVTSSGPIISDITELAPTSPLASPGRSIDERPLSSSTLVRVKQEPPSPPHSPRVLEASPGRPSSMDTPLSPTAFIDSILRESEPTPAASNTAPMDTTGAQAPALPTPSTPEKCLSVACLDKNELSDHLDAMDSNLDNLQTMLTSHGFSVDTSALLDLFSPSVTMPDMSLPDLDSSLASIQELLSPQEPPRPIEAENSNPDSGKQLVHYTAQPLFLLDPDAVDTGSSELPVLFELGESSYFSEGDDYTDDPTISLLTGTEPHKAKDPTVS

[16] = target: Neurotensin receptor type 1 (Homo sapiens, UniProt P30989); type: functional;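 also: Image-based confirmatory dose-response assay measuring agonist activity at NTR1; NTR1-expressing U2OS osteosarcoma cells imaged for beta-arrestin GFP spot formation; agonist potency where compounds increase beta-arrestin recruitment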
Chain of Neurotensin receptor type 1 (P30989 whole entry, the tested form may be a part): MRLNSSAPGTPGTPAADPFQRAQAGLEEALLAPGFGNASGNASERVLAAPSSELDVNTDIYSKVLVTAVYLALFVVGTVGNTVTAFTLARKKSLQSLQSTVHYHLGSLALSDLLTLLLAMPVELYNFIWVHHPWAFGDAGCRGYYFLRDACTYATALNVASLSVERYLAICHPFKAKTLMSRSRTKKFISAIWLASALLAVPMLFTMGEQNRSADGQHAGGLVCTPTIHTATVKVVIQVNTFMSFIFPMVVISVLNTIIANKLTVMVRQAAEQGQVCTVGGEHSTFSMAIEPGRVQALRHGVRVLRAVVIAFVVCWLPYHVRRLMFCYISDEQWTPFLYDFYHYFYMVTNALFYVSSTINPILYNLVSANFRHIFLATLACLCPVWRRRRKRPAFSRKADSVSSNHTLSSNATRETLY

[17] = Fluorescence-based cell-based high throughput dose response assay for inhibitors of the interaction of nucleotide-binding oligomerization domain containing 2 (NOD2) and the receptor-interacting serine-threonine kinase 2 (RIPK2).; type: functional; conditions: Homo sapiens
[18] = target: T7, Methionyl-tRNA synthetase, putative (Trypanosoma brucei brucei, UniProt Q38C91); type: functional, Trypanosoma brucei brucei strain 927/4 GUTat10.1
T7 sequence (Q38C91 whole entry): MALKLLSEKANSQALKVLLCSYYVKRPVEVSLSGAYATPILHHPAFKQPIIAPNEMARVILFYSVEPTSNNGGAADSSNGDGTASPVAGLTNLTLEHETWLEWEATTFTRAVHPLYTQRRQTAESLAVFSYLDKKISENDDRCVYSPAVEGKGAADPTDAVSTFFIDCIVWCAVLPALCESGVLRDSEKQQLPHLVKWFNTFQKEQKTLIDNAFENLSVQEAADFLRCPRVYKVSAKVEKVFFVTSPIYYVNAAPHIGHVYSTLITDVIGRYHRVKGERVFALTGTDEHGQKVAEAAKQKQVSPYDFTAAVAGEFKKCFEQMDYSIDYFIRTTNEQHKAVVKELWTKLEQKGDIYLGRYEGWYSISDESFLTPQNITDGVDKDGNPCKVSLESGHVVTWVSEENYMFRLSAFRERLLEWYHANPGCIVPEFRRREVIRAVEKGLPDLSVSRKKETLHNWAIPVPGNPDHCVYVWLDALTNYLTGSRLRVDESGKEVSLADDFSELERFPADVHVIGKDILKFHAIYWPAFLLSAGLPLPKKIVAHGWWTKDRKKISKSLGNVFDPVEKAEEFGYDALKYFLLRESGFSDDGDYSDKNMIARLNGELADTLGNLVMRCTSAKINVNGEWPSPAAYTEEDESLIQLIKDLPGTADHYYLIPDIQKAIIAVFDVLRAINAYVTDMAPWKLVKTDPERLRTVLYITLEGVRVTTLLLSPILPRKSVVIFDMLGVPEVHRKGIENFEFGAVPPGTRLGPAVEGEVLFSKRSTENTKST

[19] = tested on: INS1; test: INS-1E survival protection against cytokine death – cell-based, luminescence, retest, dose response (AID 449756); type: functional; conditions: Rattus norvegicus;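 also: cell death triggered by IL-1 beta plus TNF-alpha plus IFN-gamma mixture; protective hits raise ATP signal compared with cytokine alone wells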
[20] = Counterscreen for inhibitors of Trypanosoma brucei methionyl tRNA synthetase (MetRS): Luminescence-based cell-based high throughput dose response assay to identify compounds that are cytotoxic to Jurkat human T lymphocyte cells.; type: functional
[21] = target: T7, Methionyl-tRNA synthetase, putative; type: functional, Trypanosoma brucei brucei strain 927/4 GUTat10.1; remark: listed apart in the source
[22] = mouse fibroblast viability loss – cell-based, cherry-pick samples, set 2, cytotoxicity control for T. cruzi growth inhibitor project, dose response (AID 651817); type: functional; conditions: NIH3T3
[23] = target: T8, Low molecular weight phosphotyrosine protein phosphatase (Homo sapiens, UniProt P24666); type: functional; conditions: read-out: IC50_Mean
T8 sequence (P24666 whole entry): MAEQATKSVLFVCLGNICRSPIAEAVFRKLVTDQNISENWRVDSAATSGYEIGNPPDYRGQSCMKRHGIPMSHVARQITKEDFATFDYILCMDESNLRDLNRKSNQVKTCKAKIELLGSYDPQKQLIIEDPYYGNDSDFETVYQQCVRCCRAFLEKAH

[24] = target: T9, Tyrosine-protein phosphatase non-receptor type 22 (Homo sapiens, UniProt Q9Y2R2); test: PTPN22 enzyme inhibitors – biochemical, fluorescence, LYP catalytic domain, selectivity assay for LMPTP inhibitor project, dose response (AID 652006); type: functional; conditions: read-out: IC50_Mean
T9 sequence (Q9Y2R2 whole entry): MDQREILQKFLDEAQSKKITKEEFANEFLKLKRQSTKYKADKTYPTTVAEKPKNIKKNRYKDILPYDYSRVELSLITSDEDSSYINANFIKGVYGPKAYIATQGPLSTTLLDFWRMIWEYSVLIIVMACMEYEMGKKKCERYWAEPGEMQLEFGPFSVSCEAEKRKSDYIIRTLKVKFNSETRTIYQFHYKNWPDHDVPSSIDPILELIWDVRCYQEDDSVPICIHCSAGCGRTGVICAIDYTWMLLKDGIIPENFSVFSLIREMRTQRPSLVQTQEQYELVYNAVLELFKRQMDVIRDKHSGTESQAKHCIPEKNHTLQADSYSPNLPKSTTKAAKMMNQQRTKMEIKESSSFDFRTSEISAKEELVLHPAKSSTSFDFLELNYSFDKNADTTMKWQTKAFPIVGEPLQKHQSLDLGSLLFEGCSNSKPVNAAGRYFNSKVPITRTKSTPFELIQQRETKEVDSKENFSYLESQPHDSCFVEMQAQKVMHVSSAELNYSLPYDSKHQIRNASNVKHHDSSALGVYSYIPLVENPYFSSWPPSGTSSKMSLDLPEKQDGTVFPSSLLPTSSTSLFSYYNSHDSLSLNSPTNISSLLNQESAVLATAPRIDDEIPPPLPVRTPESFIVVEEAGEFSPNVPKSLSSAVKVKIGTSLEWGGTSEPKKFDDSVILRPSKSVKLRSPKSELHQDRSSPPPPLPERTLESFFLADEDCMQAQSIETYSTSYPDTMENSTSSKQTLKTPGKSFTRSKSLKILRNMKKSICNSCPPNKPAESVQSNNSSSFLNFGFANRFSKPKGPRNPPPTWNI

[25] = target: T8, Low molecular weight phosphotyrosine protein phosphatase; type: functional; conditions: read-out: IC50_Mean; remark: listed apart in the source

COc1cc(/C=C/c2sc3ccccc3[n+]2CCCS(=O)(=O)[O-])ccc1O
EC50 [1]: 16.2 µM (active)
EC50 [2]: 14.1 µM (active)
IC50 [3]: > 32 µM (inactive)
CC50 [4]: 100 µM (active)
IC50 [5]: 19.1 µM (active)
IC50 [6]: > 32 µM
EC50 [7]: > 32 µM (inactive)
IC50 [8]: 20.5 µM (active)
AC50 [9]: > 380 µM (inactive)
EC50 [10]: > 32 µM (inactive)

CCOCC(=O)Nc1ccc(S(=O)(=O)NCCc2ccccc2)cc1
IC50 [11]: 18.4 µM (inactive)
IC50 [12]: 5.7 µM (active)
IC50 [13]: 35.9 µM (inactive)

Cn1ccnc1Sc1cc(NCCCO)c([N+](=O)[O-])c2nonc12
EC50 [1]: 3.32 µM (active)
IC50 [14]: 18.2 µM (inactive)
EC50 [15]: 11.8 µM (active)
EC50 [16]: 13.2 µM (active)
IC50 [17]: 5.86 µM (active)
AC50 [9]: 8.37 µM (active)

O=C(NCc1nc2ccccc2[nH]1)C1=C[C@@H](C2CCCCC2)C[C@@H](OCc2ccc(CO)cc2)O1
IC50 [18]: 2.85 µM (active)
AC50 [19]: 13.1 µM (active)
IC50 [20]: 38.9 µM (inactive)
IC50 [21]: 6.42 µM (active)

C[C@H](CO)N1C[C@H](C)[C@H](CN(C)S(=O)(=O)c2ccccc2)Oc2c(NC(=O)c3nc4ccccc4s3)cccc2C1=O
AC50 [22]: 22.6 µM (active)

COc1cccc(N2CCN(C(=O)c3ccc(CSc4nc5cc[nH]cc-5n4)cc3)CC2)c1
IC50 [23]: > 80 µM (inactive)
IC50 [24]: 65 µM (inactive)
IC50 [25]: 14.3 µM (active)
